The results in this text go back to patent publication US10029986B2, “Alkynyl pyridine-substituted amide compound and pesticide” (NISSAN CHEMICAL INDUSTRIES, LTD., priority 2014, dated 2018).

A word on the pest or weed control: it is how far the test organism was held down. Usually melting point stands for the temperature, or range, at which the solid turns liquid.

Data set [1] relates to Phaeosphaeria nodorum (Synonym: Septoria nodorum). Description: Test on the preventive effect against wheat glume blotch. Type of data set: in vivo. Particulars: Parastagonospora nodorum, 144 h; test solution A 500 ppm, 5 ml per pot, wheat 1.3-leaf stage, 2 days inoculation chamber then 6 days at 20° C. Here is the method: (§1) Compounds of the present invention were dissolved in a solvent for emulsion (a mixture of Sorpol (registered trademark) 3005XL (manufactured by Toho Chemical Industry Co., Ltd.): N-methylpyrrolidone: Solvesso (registered trademark) 200 (manufactured by ExxonMobil Chemical) in a ratio of 1:5:2) to prepare 20 wt % emulsifiable concentrates. Then, distilled water was added to dilute the emulsifiable concentrates to the prescribed concentration (500 ppm), and the obtained solutions were used in the following the Test Examples 1 to 8. Wheat (varieties: Haruyutaka) was seeded in 90 cm^3 plastic pot, and at 1.3-leaf stage, 5 ml per pot of test solution A of the compounds of the present invention was applied. One day after treatment, a suspension of conidium of Phaeosphaeria nodorum (Synonym: Septoria nodorum) was sprayed to the wheat, and the pot was left in the inoculation chamber at 20° C. under humidity of 100% RH for 2 days. Then, the pot was placed in an air-conditioned greenhouse (20° C.) for 6 days. The proportion of the formed lesion in the inoculated leaves were measured to calculate the control value in accordance with the same formula as in the Test Example 1. The test was carried out in duplicate.

In data set [2] the test system is Botrytis cinerea. Description: Test on the preventive effect against cucumber gray mold (spore inoculation). It is filed as in vivo. Particulars: 72 h, test solution A 500 ppm, 5 ml per pot, cucumber cut leaves, conidium inoculation, 3 days at 20° C. Here is the method: Compounds of the present invention were dissolved in a solvent for emulsion (a mixture of Sorpol (registered trademark) 3005XL (manufactured by Toho Chemical Industry Co., Ltd.): N-methylpyrrolidone: Solvesso (registered trademark) 200 (manufactured by ExxonMobil Chemical) in a ratio of 1:5:2) to prepare 20 wt % emulsifiable concentrates. Then, distilled water was added to dilute the emulsifiable concentrates to the prescribed concentration (500 ppm), and the obtained solutions were used in the following the Test Examples 1 to 8. Cucumber (varieties: Sagami Hanjiro) was seeded in 90 cm^3 plastic pot, and at the cotyledon stage, 5 ml per pot of test solution A of the compounds of the present invention was applied. After drying in air, the treated leaves were cut and transferred in plastic containers. 30 μl of a mixture of a suspension of conidium of Botrytis cinerea and a dissolved PDA medium in a ratio of 1:1 was dropped on each treated leaf and inoculated. After the inoculation, the plastic containers were placed in 20° C. with humid conditions for 3 days, and the proportion of the formed lesion in the inoculated leaves were counted to calculate the control value in accordance with the same formula as in the Test Example 1. The test was carried out in duplicate.

In data set [3] the test system is Botrytis cinerea. The experiment in a line: Test on the preventive effect against cucumber gray mold (mycelium inoculation). Type of data set: in vivo. The following applies: 48 h, test solution A 500 ppm, 5 ml per pot, cucumber cotyledon, agar block inoculation, 2 days at 20° C. Here is the method:
Compounds of the present invention were dissolved in a solvent for emulsion (a mixture of Sorpol (registered trademark) 3005XL (manufactured by Toho Chemical Industry Co., Ltd.): N-methylpyrrolidone: Solvesso (registered trademark) 200 (manufactured by ExxonMobil Chemical) in a ratio of 1:5:2) to prepare 20 wt % emulsifiable concentrates. Then, distilled water was added to dilute the emulsifiable concentrates to the prescribed concentration (500 ppm), and the obtained solutions were used in the following the Test Examples 1 to 8. Cucumber (varieties: Sagami Hanjiro) was seeded in 90 cm^3 plastic pot, and at the cotyledon stage, 5 ml per pot of test solution A of the compounds of the present invention was applied. On the next day, the pot was transferred in a plastic container, and an agar blocks (diameter: 5 mm) containing Botrytis cinerea which was preliminarily cultivated in a PDA medium was inoculated on the cotyledon of the cucumber treated with the solution. After the inoculation, the plastic container was covered with a plastic sheet, then placed at 20° C. and humidified for 2 days. Thus the proportion of the formed lesion in the inoculated leaves were measured to calculate the control value in accordance with the same formula as in the Test Example 1. The test was carried out in duplicate.

In a further data set the test system is Sclerotinia sclerotiorum. The experiment in a line: Test on the preventive effect against cucumber stem rot. The following applies: 48 h, test solution A 500 ppm, 5 ml per pot, agar block inoculation, 2 days at 20° C. It is filed as in vivo. As to the method: Compounds of the present invention were dissolved in a solvent for emulsion (a mixture of Sorpol (registered trademark) 3005XL (manufactured by Toho Chemical Industry Co., Ltd.): N-methylpyrrolidone: Solvesso (registered trademark) 200 (manufactured by ExxonMobil Chemical) in a ratio of 1:5:2) to prepare 20 wt % emulsifiable concentrates. Then, distilled water was added to dilute the emulsifiable concentrates to the prescribed concentration (500 ppm), and the obtained solutions were used in the following the Test Examples 1 to 8. Cucumber (varieties: Sagami Hanjiro) was seeded in 90 cm^3 plastic pot, and at the cotyledon stage, 5 ml per pot of test solution A of the compounds of the present invention was applied. After drying in air, the pot was transferred in a plastic container, and an agar blocks (diameter: 5 mm) containing Sclerotinia sclerotiorum which was preliminarily cultivated in a PDA medium was inoculated to the seed leaves of the cucumber treated with the solution. After the inoculation, the plastic container was covered with a plastic sheet, and placed at 20° C. and humidified for 2 days, thus the proportion of the formed lesion in the inoculated leaves were measured to calculate the control value in accordance with the same formula as in the Test Example 1. The test was carried out in duplicate.

The next data set relates to Puccinia recondita. The experiment in a line: Test on the preventive effect against wheat leaf rust. The following applies: 216 h, test solution A 500 ppm, 5 ml per pot, wheat 1.3-leaf stage, 1 day inoculation chamber then 8 days at 20° C. Type of data set: in vivo. As to the method:
as §1, with “Norin 61)” for “Haruyutaka)”, “spores” for “conidium”, “Puccinia recondita” for “Phaeosphaeria nodorum (Synonym: Septoria nodorum)”, “1 day. Thereafter,” for “2 days. Then,”, “8” for “6”, “counted” for “measured”

The test system of a further data set is Asperaillus niger. Description: Test on the antifungal activity against Asperaillus niger. Type of data set: cell-based. The following applies: 48 h; test solution B 100 ppm, 10 μl per well, 96 well plate, 25° C. dark, 2 days after treatment; read-out: efficacy (flora area ratio relative to non-treated well). As to the method:
Compounds of the present invention were dissolved in dimethyl sulfoxide to prepare 1 wt % solutions. Then, distilled water was added to dilute the solutions to the prescribed concentration (100 ppm), and the obtained solutions were used in the following the Test Examples 9 to 12. 60 μl of a potato dextrose 1% agar medium was added to each well of a 96 well plate, and 30 μl of sterilized water containing spores of Asperaillus niger (10 spores/3 μl) was added to each well. Further, 10 μl per well of test solution B of the compounds of the present invention was added, and the plate was left at rest at 25° C. under dark conditions. 2 days after treatment, the flora area ratio (%) was determined to calculate the efficacy (%) relative to the non-treated well in accordance with the following formula. Efficacy (%)=[1−(flora area ratio in treated plot/flora area ratio in non-treated well)]×100

Data set [4] concerns Erysiphe polygoni (synonym: Erysiphe betae). The experiment in a line: Test on the preventive effect against cucumber powdery mildew. It is filed as in vivo. Particulars: 216 h, test solution A 500 ppm, 5 ml per pot sprayed, cucumber cotyledon stage, 9 days after inoculation. Here is the method: Compounds of the present invention were dissolved in a solvent for emulsion (a mixture of Sorpol (registered trademark) 3005XL (manufactured by Toho Chemical Industry Co., Ltd.): N-methylpyrrolidone: Solvesso (registered trademark) 200 (manufactured by ExxonMobil Chemical) in a ratio of 1:5:2) to prepare 20 wt % emulsifiable concentrates. Then, distilled water was added to dilute the emulsifiable concentrates to the prescribed concentration (500 ppm), and the obtained solutions were used in the following the Test Examples 1 to 8. Cucumber (varieties: Sagami Hanjiro) was seeded in 90 cm^3 plastic pot, and at the cotyledon stage, 5 ml per pot of test solution A of the compounds of the present invention was sprayed. After drying in air, the pot was placed in an air-conditioned greenhouse (20° C.), and a suspension of conidium of Erysiphe polygoni (synonym: Erysiphe betae) was sprayed. After the pot were replaced at the same temperature for 9 days, the proportion of the formed lesion in the inoculated leaves were counted to calculate the control value in accordance with the following formula. The test was carried out in duplicate. Control value=[1−(lesion area ratio in treated plot/lesion are a ratio in non-treated plot)]×100

The test system of data set [5] is Blumeria graminis f. sp. tritici. Description: Test on the preventive effect against wheat powdery mildew. It is filed as in vivo. The following applies: 168 h, test solution A 500 ppm, 5 ml per pot, wheat 1.3-leaf stage, 7 days after inoculation. Here is the method:
Compounds of the present invention were dissolved in a solvent for emulsion (a mixture of Sorpol (registered trademark) 3005XL (manufactured by Toho Chemical Industry Co., Ltd.): N-methylpyrrolidone: Solvesso (registered trademark) 200 (manufactured by ExxonMobil Chemical) in a ratio of 1:5:2) to prepare 20 wt % emulsifiable concentrates. Then, distilled water was added to dilute the emulsifiable concentrates to the prescribed concentration (500 ppm), and the obtained solutions were used in the following the Test Examples 1 to 8. Wheat (varieties: Norin 61) was seeded in 90 cm^3 plastic pot, and at the 1.3-leaf stage, 5 ml per pot of test solution A of the compounds of the present invention were applied. One day after treatment, the pot was placed in an air-conditioned greenhouse (20° C.), and conidium of Blumeria graminis f. sp. tritici was inoculated to the wheat. 7 days after, the proportion of the formed lesion in the inoculated leaves were measured to calculate the control value in accordance with the same formula as in the Test Example 1. The test was carried out in duplicate.

In the case of `N#CC(C#N)(CNC(=O)c1ccccc1C(F)(F)F)c1ncc(C#CC2CC2)cc1Cl` [1-023, N-[2-[3-chloro-5-(cyclopropylethynyl)pyridin-2-yl]-2,2-dicyanoethyl]-2-(trifluoromethyl)benzamide], the melting point is 42 to 44 °C. In data set [1], this compound gave a pest or weed control at 500 µg/mL of at least 70%.

As for `Cn1cc(C(=O)N(C(=O)OC(C)(C)C)C2CC2c2ncc(C#CC3CC3)cc2Cl)c(C(F)F)n1` (stereo not drawn) [12-002, tert-butyl N-[2-[3-chloro-5-(cyclopropylethynyl)pyridin-2-yl]cyclopropyl]-N-[3-difluoromethyl-1-methyl-1H-pyrazole-4-carbonyl]carbamate], the melting point fell in the range of 110 to 112 °C. Also, the pest or weed control at 500 µg/mL with Botrytis cinerea [2] is at least 70%.

In turn, `Cn1cc(C(=O)NC2CC2c2ncc(C#CC3CC3)cc2Cl)c(C(F)F)n1` (stereo not drawn) [8-033, N-[2-[3-chloro-5-(cyclopropylethynyl)pyridin-2-yl]cyclopropyl]-3-difluoromethyl-1-methyl-1H-pyrazole-4-carboxamide] had a melting point of 176 to 178 °C. Moreover, the pest or weed control at 500 µg/mL with Botrytis cinerea [2] was at least 70%. In the data set with Botrytis cinerea [3], this compound had a pest or weed control at 500 µg/mL of at least 70%. Besides, the pest or weed control at 500 µg/mL in the data set on Sclerotinia sclerotiorum was at least 70%. For the same compound, the pest or weed control at 500 µg/mL in the data set with Puccinia recondita is at least 70%. In the data set with Asperaillus niger, the inhibition of growth at 100 µg/mL was at least 50%.

As for `CC(F)(CNC(=O)c1cccnc1C(F)F)c1ncc(C#CC2CC2)cc1Cl` (stereo not drawn) [3-038, N-[2-[3-chloro-5-(cyclopropylethynyl)pyridin-2-yl]-2-fluoropropyl]-2-(difluoromethyl)nicotinamide], the melting point fell in the range of 113 to 115 °C.

As to `CC(NC(=O)c1cccnc1C(F)(F)F)C(SCC(F)(F)F)c1ncc(C#CC2CC2)cc1Cl` (stereo not drawn) [3-034a], the melting point lay within 65 to 66 °C.

Turning to `COC(c1ncc(C#CC2CC2)cc1Cl)C(C)NC(=O)c1sc(C)nc1C(F)F` (stereo not drawn) [9-006b], in the data set with Puccinia recondita, the pest or weed control at 500 µg/mL was at least 70%.

`CCOC(=O)C(CNC(=O)c1cn(C)nc1C(F)F)(C(=O)OCC)c1ncc(C#CC2CC2)cc1Cl` [8-023, 2-[3-chloro-5-(cyclopropylethynyl)pyridin-2-yl]-2-[(3-difluoromethyl-1-methyl-1H-pyrazole-4-carboxamide)methyl]malonic acid diethyl ester]: the melting point lay in the range of 87 to 88 °C. The same compound showed a pest or weed control at 500 µg/mL in [4] of at least 70%. Also, in the data set with Botrytis cinerea [2], the pest or weed control at 500 µg/mL is at least 70%. Moreover, the pest or weed control at 500 µg/mL in data set [5] was at least 70%. This compound also gave a pest or weed control at 500 µg/mL in data set [1] of at least 70%.
